Experimental data taken from patent US8431712B2, “Methods for the synthesis of pyridoxamine” (NephroGenex, Inc., priority 2004, dated 2013).

Target: post-Amadori AGE formation (RNase Amadori)
Assay: Post-Amadori inhibitory activity: inhibition of AGE formation from RNase Amadori, detected by ELISA (BST-3CK antibody, DELFIA Europium)
Format: biochemical
Details: for potency at inhibiting post-Amadori AGE formation compared to PM: comparison with pyridoxamine (PM)
Protocol: This example illustrates the activity of the dimer and trimer for inhibiting post-Amadori AGE formation compared to pyridoxamine.
All reactions were done in duplicate All compound stocks were 100 mM in DMSO. All reactions were carried out for 20 hours in 10% DMSO and 0.18 M Phosphate pH 7.4 Reaction volumes were 50 μl. Compound dilutions were first done in 100% DMSO Add to each well: • 20 μl of 0.2 M Phosphate • then 5 μl of compound dilution in 100% DMSO mix • Add 25 μl of 0.2 mg/ml RNase Amadori produced for a final protein concentration in the reaction of 0.1 mg/ml. • After 20 hours the reaction wells were diluted with coating buffer 5 to 50 then 4 to 50 to give a final concentration of 0.8 μg/ml or 40 ng/well. • Coat for two hours • Block one hour • 1 hour with primary antibody BST-3CK @ 1:10,000 • 1 hour with secondary antibody DELFIA Europium GAR @ 0.25 μg/ml (secondary antibody stock is at 660 μg/ml so diluted about 1:2500).
Compounds were tested over the range of concentrations 1000 to 1 μM.

[1] = 20 hours, 10% DMSO, 0.18 M Phosphate pH 7.4, 0.1 mg/ml RNase Amadori, tested 1000 to 1 μM, duplicate

IC50 [1] [µM] | potency at inhibiting post-Amadori AGE formation compared to PM | IC50 (from previous experiments) [µM] | SMILES
1000 | more potent than PM |  | Cc1ncc(CO)c(Cc2nc(C)c(O)c(CN)c2CO)c1O [Dimer X]
 |  | 7000 | Cc1ncc(CO)c(CN)c1O [Sigma PM, 4-aminomethyl-3-hydroxy-5-hydroxymethyl-2-methylpyridine, reference compound]
400 | more potent than PM |  | Cc1ncc(CO)c(Cc2nc(C)c(O)c(Cc3nc(C)c(O)c(CN)c3CO)c2CO)c1O [Trimer XX]
